The values that follow come from paper PMC2650494 (Bioorganic & medicinal chemistry, 2008).

SMILES strings stand for the structures. Non-standard residues stand in square brackets, D forms with d. Residues, ends and D or L forms follow the SMILES beside them. *: point of attachment. Phe(4-CH2SO3H) = N[C@@H](Cc1ccc(CS(=O)(=O)O)cc1)C(=O)O; X1 = [N-]=[N+]=NCCOCCOCC* A value given as a limit tells only on which side of the number the result lay.

For one series, the target named is gp120-CD4 (Human immunodeficiency virus type 1 group M subtype B, UniProt P35961). It counts as binding, HIV-1. The following applies: 1H NMR; 40:1 peptide:gp120-CD4.

As for `CC[C@H](C)[C@H](NC(=O)[C@H](CC(=O)O)NC(=O)[C@H](Cc1ccc(CS(=O)(=O)O)cc1)NC(=O)[C@@H](NC(=O)[C@@H]1CCCN1C(=O)[C@H](CO)NC(=O)[C@H](CO)NC(=O)[C@@H](NC(=O)[C@H](CCC(N)=O)NC(=O)[C@H](Cc1ccc(CS(=O)(=O)O)cc1)NC(=O)[C@@H](N)CC(=O)O)C(C)C)[C@@H](C)CC)C(=O)N[C@@H](CC(N)=O)C(=O)N[C@@H](Cc1ccc(CS(=O)(=O)O)cc1)C(=O)N[C@@H](Cc1ccc(O)cc1)C(=O)N[C@H](C(=O)N[C@@H](CO)C(=O)N[C@@H](CCC(=O)O)C(=O)N1CCC[C@H]1C(=O)N[C@@H](COCCOCCOCCN=[N+]=[N-])C(=O)O)[C@@H](C)O` [compound 11] (H-D[Phe(4-CH2SO3H)]QVSSPI[Phe(4-CH2SO3H)]DIN[Phe(4-CH2SO3H)]YTSEPS(X1)-OH; N-terminus and C-terminus assumed), in “Water solubility”, the solubility (usually how much of the substance goes into solution per volume) was greater than 30 mM. Further, at gp120-CD4, the “Increase in line width between free and bound peptides, 10δ” value stood at 2.4 Hz; the “Increase in line width between free and bound peptides, 14δ” value turned out to be 2.8 Hz; the “Increase in line width between free and bound peptides, 15δ” value amounted to 1.9 Hz; the “Increase in line width between free and bound peptides, 15ε” value turned out to be 3.2 Hz.
